Consider ten compounds from patent US8951992B2, “Mycobacterium membrane protease as a target for inhibitors of intrabacterial pH homeostasis” (Cornell University, priority 2008, dated 2015).

Holding throughout (format): cell-based, Mycobacterium tuberculosis
Experiment [1] has as its system Wild-type H37Rv transformed with pH-GFP. The following applies: pH 4.5.
Experiment [2] relates to Rv3671c mutant in IFN-γ-activated macrophages.
Experiment [3] has the same test system. The source holds these as a separate data set.
Experiment [4] concerns Rv3671c mutant.
For experiment [5], the system named is Rv3671c mutant. This is another data set of the same source.
Experiment [6] concerns Rv3671c mutant. This is another data set of the same source.
In experiment [7] the test system is Rv3671c mutant. The source holds these as a separate data set.
A further experiment deals with lysX mutant.

SMILES strings stand for the structures.

As to `CC[C@@H](CO)NCCN[C@@H](CC)CO` [Ethambutol], the “concentrations causing a substantial decline in pHIB” value in experiment [1] is recorded as not below 8 μg/ml.

In the case of `Cl.N` [NH4Cl], the “effect on pHIB of the Rv3671c mutant” value in experiment [2] is “protected”. The “effect on survival of the Rv3671c mutant” value in experiment [3] is given as “restored”.

On to `CCCCCCCCCCCCOS(=O)(=O)[O-].[Na+]` [SDS], for which the “sensitivity of the Rv3671c mutant to SDS” value in the experiment with Rv3671c mutant [4] is “hypersensitive”.

Consider `N#CC(C#N)=NNc1cccc(Cl)c1` [carbonyl cyanide m-chlorophenylhydrazone], for which, in the experiment on Rv3671c mutant [5], the “effect on the Rv3671c mutant's pHIB” value was “further reduced”. Moreover, the “effect on the Rv3671c mutant's survival” value with Rv3671c mutant [6] is “further attenuated”.

For the compound `CC[C@H]1OC(=O)[C@H](C)[C@@H](O[C@H]2C[C@@](C)(OC)[C@@H](O)[C@H](C)O2)[C@H](C)[C@@H](O[C@@H]2O[C@H](C)C[C@H](N(C)C)[C@H]2O)[C@](C)(O)C[C@@H](C)C(=O)[C@H](C)[C@@H](O)[C@]1(C)O` [erythromycin], the “sensitivity of the Rv3671c mutant to the antibiotic” value in the experiment with Rv3671c mutant [7] is “hypersensitive”. In addition, the “sensitivity of the lysX mutant to the antibiotic” value in the experiment on lysX mutant is given as “hypersensitive”.

As to `NNC(=O)c1ccncc1` [isoniazid], the “effect on Mtb's pHIB” value in experiment [1] is on record as “did not significantly alter pHIB”.

As for `CC[C@@]1([C@@H]2O[C@@H]([C@H]3O[C@@](O)(CO)[C@H](C)C[C@@H]3C)C[C@@H]2C)CC[C@H]([C@]2(C)CC[C@]3(C[C@H](O)[C@@H](C)[C@@H]([C@@H](C)[C@@H](OC)[C@H](C)C(=O)O)O3)O2)O1` [monensin], the “effect on Mtb's pHIB” value in experiment [1] was “concentration dependent decline in pHIB”. Moreover, in the experiment on Rv3671c mutant [5], the “effect on the Rv3671c mutant's pHIB” value is on record as “further reduced”. The “effect on the Rv3671c mutant's survival” value with Rv3671c mutant [6] is “further attenuated”.

In the case of `NC(=O)c1cnccn1` [pyrazinmide], in experiment [1], the “effect on Mtb's pHIB” value is “did not significantly alter pHIB”.

With `CO[C@H]1/C=C/O[C@@]2(C)Oc3c(C)c(O)c4c(O)c(c(/C=N/N5CCN(C)CC5)c(O)c4c3C2=O)NC(=O)/C(C)=C\C=C\[C@H](C)[C@H](O)[C@@H](C)[C@@H](O)[C@@H](C)[C@H](OC(C)=O)[C@@H]1C` [rifampin], the “effect on Mtb's pHIB” value in experiment [1] is “did not significantly alter pHIB”. Besides, the “sensitivity of the Rv3671c mutant to the antibiotic” value with Rv3671c mutant [7] is given as “hypersensitive”. The “sensitivity of the lysX mutant to the antibiotic” value in the experiment with lysX mutant is given as “hypersensitive”.

For `[H]/N=C(/N)N[C@H]1[C@H](O)[C@@H](O)[C@H](O[C@@H]2O[C@@H](C)[C@](O)(C=O)[C@H]2O[C@@H]2O[C@@H](CO)[C@H](O)[C@@H](O)[C@@H]2NC)[C@@H](N/C(N)=N\[H])[C@@H]1O` [streptomycin], in experiment [1], the “effect on Mtb's pHIB” value is listed as “did not significantly alter pHIB”.
